Results taken from PubChem BioAssay (NCI).
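Protocol summary: plate cells (96-well), add compound at 5 concentrations, incubate 48 h, interpolate endpoints linearly. The concentration for 50% growth inhibition is given as GI50. TGI is the concentration that stops growth completely.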

Columns and labels:
Experiment in all cases: NCI-60 cell line screen, 48 h
HT29 colon = test system: HT29 colon
SF-539 CNS = test system: SF-539 CNS
HS 578T breast = test system: HS 578T breast
PC-3 prostate = test system: PC-3 prostate
SW-620 colon = test system: SW-620 colon
HOP-62 NSCLC = test system: HOP-62 NSCLC
UACC-257 melanoma = test system: UACC-257 melanoma
T-47D breast = test system: T-47D breast
HCT-116 colon = test system: HCT-116 colon
OVCAR-3 ovarian = test system: OVCAR-3 ovarian
HCC-2998 colon = test system: HCC-2998 colon
786-0 renal = test system: 786-0 renal
UO-31 renal = test system: UO-31 renal

Compound | TGI (HT29 colon) [µM] | TGI (SF-539 CNS) [µM] | TGI (HS 578T breast) [µM] | TGI (PC-3 prostate) [µM] | TGI (SW-620 colon) [µM] | TGI (HOP-62 NSCLC) [µM] | TGI (UACC-257 melanoma) [µM] | TGI (T-47D breast) [µM] | TGI (HCT-116 colon) [µM] | TGI (OVCAR-3 ovarian) [µM] | TGI (HCC-2998 colon) [µM] | TGI (786-0 renal) [µM] | TGI (UO-31 renal) [µM] | GI50 (HT29 colon) [µM] | GI50 (UO-31 renal) [µM]
CCOC(=O)CCc1ccc(NC(=O)/C=C/c2ccc([N+](=O)[O-])o2)cc1 | 3.43 | 3.99 | > 100 | > 29.9 | 2.31 | 11 | 2.71 | 40.8 | 2.01 | 2.88 | 7.61 | 1.72 | 3.08 | – | –
COC1(OC)C2C=CC1C([C@](C)(N)CO)C2 (stereo partly specified) | > 100 | > 100 | > 100 | > 100 | > 100 | > 100 | > 100 | > 100 | > 100 | > 100 | > 100 | > 100 | > 100 | – | –
Oc1cccc2ccc(Br)nc12 | > 100 | > 100 | > 100 | > 100 | > 100 | > 100 | > 100 | > 100 | > 100 | > 100 | > 100 | > 100 | > 100 | – | –
CC12CCC(=O)[C@@]1(C)CCCC2O (stereo partly specified) | > 100 | > 100 | > 100 | > 100 | > 100 | > 100 | > 100 | > 100 | > 100 | – | > 100 | > 100 | > 100 | – | –
COc1ccc(NC(/C(C(=O)C(=O)/C=C(\O)c2ccccc2)=C(\O)c2ccccc2)c2ccc(OC)cc2)cc1 (stereo unspecified) | > 100 | > 100 | > 100 | > 100 | – | > 100 | > 100 | 81.4 | > 100 | 94.1 | 62.3 | > 100 | > 100 | – | –
N#CC(C#N)=Cn1c(=S)[nH]c2ccc([N+](=O)[O-])cc21 | > 100 | > 100 | > 100 | > 100 | > 100 | > 100 | > 100 | > 100 | > 100 | > 100 | > 100 | > 100 | > 100 | – | –
COC(=O)/C(C#N)=C/c1cc(C(C)(C)C)c(O)c(C(C)(C)C)c1 | 12.1 | 11 | > 37 | 6.78 | 14.5 | 11.3 | 6.72 | 19.4 | 10.5 | 5.55 | 7.8 | 12.2 | 10 | – | –
Cc1ccc(CN2CCN(Cc3ccc(C)o3)C(C)C2)o1 (stereo unspecified) | > 100 | > 100 | > 100 | > 100 | > 100 | > 100 | > 100 | > 100 | > 100 | > 100 | > 100 | > 100 | > 100 | – | –
C1=Cc2cccc3occ(c23)C=C1 | > 100 | > 100 | > 100 | > 100 | > 100 | > 100 | > 100 | > 100 | > 100 | > 100 | > 100 | > 100 | > 100 | – | –
O=C(NC(CCCCN1C(=O)c2ccccc2C1=O)P(=O)(Oc1ccccc1)Oc1ccccc1)OCc1ccccc1 (stereo unspecified) | > 100 | > 100 | > 100 | > 100 | > 100 | > 100 | > 100 | > 100 | – | > 100 | > 100 | > 100 | > 100 | – | –
CC(=O)N1N=C(c2ccc3ccccc3c2O)CC1c1ccc(N(C)C)cc1 (stereo unspecified) | > 100 | > 100 | > 100 | > 100 | > 100 | > 100 | > 100 | > 100 | > 100 | > 100 | > 100 | > 100 | > 100 | – | –
COC(=O)[C@@H]1[C@H]2CC[C@]3(C)[C@@H](OC(C)=O)CC[C@H]3[C@@H]2CC[C@H]1C(C)=O | > 100 | > 100 | > 100 | > 100 | > 100 | > 100 | > 100 | > 100 | > 100 | > 100 | > 100 | > 100 | > 100 | – | –
C[C@H]1S[C@H](c2c(F)cccc2F)n2c1nc1ccccc12 | > 100 | – | > 100 | > 100 | > 100 | > 100 | > 100 | > 100 | > 100 | > 100 | > 100 | > 100 | > 100 | – | –
c1cc2c3ccsc3c3sccc3c2s1 | > 100 | > 100 | 71.8 | > 100 | > 100 | 70.5 | > 100 | > 100 | > 100 | > 100 | > 100 | > 100 | > 100 | – | –
COc1ccc(NC(=O)NNS(=O)(=O)c2ccc(C)cc2)cc1 | > 100 | > 100 | > 100 | > 100 | > 100 | > 100 | > 100 | > 100 | > 100 | – | > 100 | > 100 | > 100 | – | –
COc1ccc2[nH]c3c(O)c(-c4c(C)cc5c([nH]c6ccc(OC)cc65)c4O)c(C)cc3c2c1 | 7.6 | 8.81 | 11.5 | 7.69 | 10.3 | 8.35 | 8.32 | 13.8 | 7.63 | 7.79 | 6.99 | 8.62 | 7.12 | 3.71 | 3.78
CC[C@]1(Cc2ccc(OC)c(OC)c2)C=[N+]([O-])O[C@H](OCc2ccccc2)[C@@H]1OC(C)=O | 79.9 | – | 60.5 | 64.3 | > 100 | > 100 | > 100 | > 100 | – | 42.5 | > 100 | > 100 | > 100 | – | –
